Laboratory results as given in ChEMBL document CHEMBL1201862, “PubChem BioAssay data set” (2004).
Structures can show the parent of a compound that is named as a salt.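 Each compound was tested at five concentrations against cells in 96-well plates for 48 hours. GI50 = concentration required for 50% inhibition of growth.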 Activity calls are given as the source filed them. Cut-off read from the data, not from the text of the source: active = GI50 up to about 1.1 µM and inactive = higher.

What was measured:
Experiment in all cases: NCI tumour cell line growth inhibition, 48 h
[1] = test system: ACHN
[2] = test system: OVCAR-8
[3] = test system: LOX IMVI
[4] = test system: HCT-15
[5] = test system: Malme-3M
[6] = test system: HT-29
[7] = test system: EKVX
[8] = test system: IGROV-1
[9] = test system: HL-60
[10] = test system: M14
[11] = test system: M19-MEL
[12] = test system: CCRF-CEM
[13] = test system: UO-31
[14] = test system: SF-268
[15] = test system: A549
[16] = test system: NCI-H522
[17] = test system: SNB-19
[18] = test system: DMS-114
[19] = test system: MDA-MB-435
[20] = test system: MDA-N

Structure (SMILES)	GI50 [1]	GI50 [2]	GI50 [3]	GI50 [4]	GI50 [5]	GI50 [6]	GI50 [7]	GI50 [8]	GI50 [9]	GI50 [10]	GI50 [11]	GI50 [12]	GI50 [13]	GI50 [14]	GI50 [15]	GI50 [16]	GI50 [17]	GI50 [18]	GI50 [19]	GI50 [20]
COC(=O)C1[C@H](c2ccc3c(c2)OCO3)OC(=O)[C@]1(C(=O)OC)C(=O)c1ccc(OC)c(OC)c1 (some centres undefined)	60.3 µM (inactive)	42.1 µM (inactive)	18.8 µM (inactive)	33.7 µM	84.9 µM (inactive)	28.1 µM (inactive)	> 100 µM (inactive)	42.3 µM (inactive)	25.2 µM (inactive)	70.1 µM (inactive)	51.6 µM (inactive)	43.3 µM (inactive)	87.3 µM (inactive)							
CC(C)C1CC(O)O[C@@H]([C@@H](C)[C@H]2CC(=O)[C@@H]3[C@@H]4[C@@H](O)[C@H](O)[C@H]5[C@@H](O)[C@H](O)CC[C@]5(C)[C@H]4CC[C@]23C)C1 (some centres undefined)	24.4 µM (inactive)	54.1 µM (inactive)	50.1 µM (inactive)	> 100 µM	77.4 µM (inactive)	> 100 µM (inactive)	66.1 µM (inactive)	24.5 µM (inactive)	> 100 µM (inactive)	91.6 µM (inactive)	37.1 µM (inactive)	> 100 µM (inactive)	> 100 µM (inactive)	39.9 µM (inactive)	53.1 µM (inactive)	70.1 µM (inactive)	37.8 µM (inactive)			
COc1cc(CNc2ccc(C(C)C)cc2)cc(OC)c1OC	21.8 µM (inactive)	28 µM (inactive)	16.2 µM (inactive)	16.9 µM	19.5 µM (inactive)	16.9 µM (inactive)	51.8 µM (inactive)	31 µM (inactive)			17.1 µM (inactive)	19 µM (inactive)	20.2 µM (inactive)	54.7 µM (inactive)	13 µM (inactive)		29.6 µM (inactive)	24.9 µM (inactive)		
O=[N+]([O-])c1ccccc1S(=O)(=O)c1ccccc1	> 100 µM (inactive)	> 100 µM (inactive)	> 100 µM (inactive)	> 100 µM	> 100 µM (inactive)	> 100 µM (inactive)	> 100 µM (inactive)	> 100 µM (inactive)	31.2 µM (inactive)	> 100 µM (inactive)	39.4 µM (inactive)	> 100 µM (inactive)	28.2 µM (inactive)	> 100 µM (inactive)	> 100 µM (inactive)			64 µM (inactive)		
COc1ccc(OC)c(/C=C(/C#N)c2ccccc2)c1	49 µM (inactive)	37.2 µM (inactive)	16.1 µM (inactive)	18.9 µM	35.6 µM (inactive)	6.52 µM (inactive)	30.6 µM (inactive)	31.7 µM (inactive)	3.95 µM (inactive)	33.3 µM (inactive)	22.2 µM (inactive)	17.5 µM (inactive)		34 µM (inactive)	13.2 µM (inactive)	14 µM (inactive)	52 µM (inactive)			
CCOC1C=CC(=O)C(CO)O1 (centres undefined)	10.8 µM (inactive)	11.6 µM (inactive)	5.58 µM (inactive)	10 µM	12.2 µM (inactive)	8.26 µM (inactive)	14.3 µM (inactive)	12.9 µM (inactive)	5.57 µM (inactive)	15 µM (inactive)		1.88 µM (inactive)	2.21 µM (inactive)	14.1 µM (inactive)	17.6 µM (inactive)	1.67 µM (inactive)	19.7 µM (inactive)		12.2 µM (inactive)	15.3 µM (inactive)
CCN(CC)CCC(=O)c1ccccc1	16.2 µM (inactive)	24.2 µM (inactive)	19.4 µM (inactive)	20.1 µM		28.2 µM (inactive)	60 µM (inactive)	> 100 µM (inactive)	12.6 µM (inactive)	16.8 µM (inactive)	25.6 µM (inactive)	6.21 µM (inactive)	31.3 µM (inactive)	17.8 µM (inactive)	> 100 µM (inactive)		> 100 µM (inactive)	20.3 µM (inactive)		
O=C(O)Cc1nc[nH]c1C(=O)O	> 100 µM (inactive)	> 100 µM (inactive)	> 100 µM (inactive)	> 100 µM	> 100 µM (inactive)	> 100 µM (inactive)	> 100 µM (inactive)	> 100 µM (inactive)	> 100 µM (inactive)	> 100 µM (inactive)		> 100 µM (inactive)	> 100 µM (inactive)	> 100 µM (inactive)	> 100 µM (inactive)	> 100 µM (inactive)	> 100 µM (inactive)		> 100 µM (inactive)	> 100 µM (inactive)
CN(C)CCOc1ccc(/C(=C(/CCCl)c2ccccc2)c2ccccc2)cc1 [TOREMIFENE CITRATE]	17.5 µM (inactive)	17.7 µM (inactive)	18.1 µM (inactive)	14.7 µM	17.9 µM (inactive)	5.81 µM (inactive)	15.9 µM (inactive)	21.4 µM (inactive)	5.13 µM (inactive)	14.1 µM (inactive)		6.1 µM (inactive)	16.7 µM (inactive)	17.4 µM (inactive)	16.3 µM (inactive)	16.5 µM (inactive)	15 µM (inactive)		17.4 µM (inactive)	16.4 µM (inactive)
COc1cc(O)c2c(=O)c(O)c(-c3ccc(O)c(O)c3)oc2c1 [RHAMNETIN]	5.47 µM (inactive)	10.7 µM (inactive)	11.7 µM (inactive)	8.04 µM	17.7 µM (inactive)	15.9 µM (inactive)	10.2 µM (inactive)	40.3 µM (inactive)	2.78 µM (inactive)	5.15 µM (inactive)		3.61 µM (inactive)	6.05 µM (inactive)	7.26 µM (inactive)	15 µM (inactive)	3.15 µM (inactive)	12.2 µM (inactive)		13 µM (inactive)	19.8 µM (inactive)
CN(C)c1c(Cl)c(=O)oc2c1ccc1nc(-c3ccccc3)sc12	> 100 µM (inactive)	> 100 µM (inactive)	> 100 µM (inactive)	> 100 µM	31.5 µM (inactive)	> 100 µM (inactive)	> 100 µM (inactive)	> 100 µM (inactive)	> 100 µM (inactive)	> 100 µM (inactive)		> 100 µM (inactive)	> 100 µM (inactive)	> 100 µM (inactive)	> 100 µM (inactive)	> 100 µM (inactive)	> 100 µM (inactive)		> 100 µM (inactive)	> 100 µM (inactive)
COc1cccc(NC(=O)/C(CS(=O)(=O)CCC(C(C)=O)C(C)=O)=N/NC(C)(C)C)c1	> 100 µM (inactive)	> 100 µM (inactive)	> 100 µM (inactive)	> 100 µM	> 100 µM (inactive)	> 100 µM (inactive)	> 100 µM (inactive)	> 100 µM (inactive)	> 100 µM (inactive)	> 100 µM (inactive)		> 100 µM (inactive)	> 100 µM (inactive)	> 100 µM (inactive)	> 100 µM (inactive)	> 100 µM (inactive)	> 100 µM (inactive)	> 100 µM (inactive)		
COc1cc2c(cc1OC)C(N(C)C)C(c1ccccc1)=C2Cl (centres undefined)		18.9 µM (inactive)	17.4 µM (inactive)	17.5 µM		19.9 µM (inactive)		21.8 µM (inactive)	16.1 µM (inactive)	19.8 µM (inactive)	18.5 µM (inactive)	60.5 µM (inactive)	16.9 µM (inactive)			10.1 µM (inactive)	37.9 µM (inactive)			
O=CC(I)=C(c1ccccc1)c1ccccc1	20.7 µM (inactive)	21.7 µM (inactive)	9.51 µM (inactive)	14.1 µM	16.2 µM (inactive)	14 µM (inactive)	18.9 µM (inactive)	19.2 µM (inactive)	6.5 µM (inactive)	18.5 µM (inactive)		15.3 µM (inactive)	14.3 µM (inactive)	21.3 µM (inactive)	19.5 µM (inactive)	16.2 µM (inactive)	15.7 µM (inactive)		17 µM (inactive)	17 µM (inactive)
CC1(C)C2CCC3CC(CCC#N)CCC3C21C#N (centres undefined)	> 100 µM (inactive)	> 100 µM (inactive)	> 100 µM (inactive)	> 100 µM	> 100 µM (inactive)	> 100 µM (inactive)	> 100 µM (inactive)	> 100 µM (inactive)	> 100 µM (inactive)	> 100 µM (inactive)		> 100 µM (inactive)	> 100 µM (inactive)	> 100 µM (inactive)	> 100 µM (inactive)	> 100 µM (inactive)	> 100 µM (inactive)		> 100 µM (inactive)	> 100 µM (inactive)
N#Cc1c(N2CCCC2)ncn(-c2ccccc2)c1=O	> 100 µM (inactive)	> 100 µM (inactive)	> 100 µM (inactive)	> 100 µM	> 100 µM (inactive)	> 100 µM (inactive)	> 100 µM (inactive)	> 100 µM (inactive)	> 100 µM (inactive)	> 100 µM (inactive)		> 100 µM (inactive)	> 100 µM (inactive)	> 100 µM (inactive)	> 100 µM (inactive)	> 100 µM (inactive)	> 100 µM (inactive)		> 100 µM (inactive)	> 100 µM (inactive)
C=C(C)[C@@H]1CC[C@]2(C(=O)O)CC[C@]3(C)[C@H](CC[C@@H]4[C@@]5(C)CC(=O)C(C)(C)[C@@H]5CC[C@]43C)[C@@H]12	7.53 µM (inactive)	11.2 µM (inactive)	8.36 µM (inactive)	8.67 µM	8.05 µM (inactive)	7.19 µM (inactive)	9.35 µM (inactive)	9.86 µM (inactive)	0.649 µM (active)	8.65 µM (inactive)		0.574 µM (active)	7.29 µM (inactive)	14.8 µM (inactive)	5.56 µM (inactive)	5.78 µM (inactive)	11.7 µM (inactive)		8.02 µM (inactive)	8.13 µM (inactive)
